Laboratory results taken from ChEMBL document CHEMBL4359937, “Design, synthesis and evaluation of 2-amino-imidazol-4-one derivatives as potent β-site amyloid precursor protein cleaving enzyme 1 (BACE-1) inhibitors” (Bioorg Med Chem Lett, 2019).

Columns and labels:
Beta-secretase 1 [1] = target: T1, Beta-secretase 1 (Homo sapiens, UniProt P56817); assay: Inhibition of human BACE1 (1 to 460 residues) expressed in baculovirus infected insect cells at 10 uM using Rh-EVNLDAEFK-quencher as substrate measured after 90 mins by FRET assay relative to control
T1 sequence (P56817 whole entry, the tested form may be a part): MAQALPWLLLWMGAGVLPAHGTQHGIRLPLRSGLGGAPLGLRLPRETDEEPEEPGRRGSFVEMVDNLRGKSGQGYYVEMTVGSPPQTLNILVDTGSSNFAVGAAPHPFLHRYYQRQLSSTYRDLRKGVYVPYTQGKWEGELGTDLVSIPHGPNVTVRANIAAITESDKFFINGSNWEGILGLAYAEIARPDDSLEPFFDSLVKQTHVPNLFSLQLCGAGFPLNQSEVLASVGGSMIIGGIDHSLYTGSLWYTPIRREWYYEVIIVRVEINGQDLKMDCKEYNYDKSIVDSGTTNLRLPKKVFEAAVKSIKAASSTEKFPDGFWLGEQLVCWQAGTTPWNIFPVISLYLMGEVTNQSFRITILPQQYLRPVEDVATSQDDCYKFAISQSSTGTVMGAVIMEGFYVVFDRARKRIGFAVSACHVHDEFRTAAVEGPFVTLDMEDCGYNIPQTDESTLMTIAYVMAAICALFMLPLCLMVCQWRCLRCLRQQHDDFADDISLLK

Beta-secretase 1 [2] = target: T1, Beta-secretase 1; assay: Inhibition of human BACE1 (1 to 460 residues) expressed in baculovirus infected insect cells using Rh-EVNLDAEFK-quencher as substrate measured after 90 mins by FRET assay
[3] = 1-Octanol/water distribution coefficient, logP of compound at 60 ug/ml shaken for 30 mins and measured by ultraviolet spectrophotometry analysis; format: physicochemical

| SMILES | inhibition (Beta-secretase 1 [1]) [%] | IC50 (Beta-secretase 1 [2]) [nM] | logP at 0.5 h [3] |
| --- | --- | --- | --- |
| Cc1ccc(-c2cccc(C3(c4ccccc4)N=C(N)N(C)C3=O)c2)c(C)c1 (stereo unspecified) | 40.9 | > 10000 | 2.51 |
| Cc1ccc(-c2cccc(C3(c4ccccc4)N=C(N)N(C)C3=O)c2)cc1C (stereo unspecified) | 88.3 | 425 | 2.49 |
| Cc1ccc(-c2cccc(C3(c4ccccc4)N=C(N)N(C)C3=O)c2)c(F)c1 (stereo unspecified) | 97 | 141 | 2.97 |
| Cc1cc(F)ccc1-c1cccc(C2(c3ccccc3)N=C(N)N(C)C2=O)c1 (stereo unspecified) | 87.7 | 456 | 2.34 |
| COc1cccc(-c2cccc(C3(c4ccccc4)N=C(N)N(C)C3=O)c2)c1OC (stereo unspecified) | 78.6 | 1110 | 2.15 |
| COc1ccc(F)cc1-c1cccc(C2(c3ccccc3)N=C(N)N(C)C2=O)c1 (stereo unspecified) | 96 | 173 | 2.86 |
| COc1ccc(-c2cccc(C3(c4ccccc4)N=C(N)N(C)C3=O)c2)cc1OC (stereo unspecified) | 97.5 | 119 | 2.49 |
| CN1C(=O)C(c2ccccc2)(c2ccccc2)N=C1N | 62.2 |  | 1.9 |
| COc1cc(OC)cc(-c2cccc(C3(c4ccccc4)N=C(N)N(C)C3=O)c2)c1 (stereo unspecified) | 80.7 | 851 | 2.41 |
| Cc1cc(C)cc(-c2cccc(C3(c4ccccc4)N=C(N)N(C)C3=O)c2)c1 (stereo unspecified) | 47.2 | > 10000 | 2.56 |
| Cc1ccc(F)cc1-c1cccc(C2(c3ccccc3)N=C(N)N(C)C2=O)c1 (stereo unspecified) | 92 | 328 | 2.35 |
| CN1C(=O)C(c2ccccc2)(c2cccc(-c3ccc(OCc4ccccc4)cc3)c2)N=C1N (stereo unspecified) | 37.7 | > 10000 | 2.99 |
| Cc1cc(C)c(-c2cccc(C3(c4ccccc4)N=C(N)N(C)C3=O)c2)c(C)c1 (stereo unspecified) | 45.7 | > 10000 | 2.55 |
| COc1ccc(OC)c(-c2cccc(C3(c4ccccc4)N=C(N)N(C)C3=O)c2)c1 (stereo unspecified) | 95 | 195 | 2.54 |
| Cc1cccc(C)c1-c1cccc(C2(c3ccccc3)N=C(N)N(C)C2=O)c1 (stereo unspecified) | 34.1 | > 10000 | 2.42 |
| CN1C(=O)C(c2ccccc2)(c2cccc(-c3ccc(-c4ccccc4)cc3)c2)N=C1N (stereo unspecified) | 43.9 | > 10000 | 3.18 |
| COc1cccc(-c2cccc(C3(c4ccccc4)N=C(N)N(C)C3=O)c2)c1F (stereo unspecified) | 94.7 | 220 | 2.72 |
| Cc1ccc(C)c(-c2cccc(C3(c4ccccc4)N=C(N)N(C)C3=O)c2)c1 (stereo unspecified) | 42.1 | > 10000 | 2.52 |
| CCc1ccc(-c2cccc(C3(c4ccccc4)N=C(N)N(C)C3=O)c2)cc1 (stereo unspecified) | 43.5 | > 10000 | 2.56 |
| CN1C(=O)C(c2ccccc2)(c2cccc(-c3cccc(-c4ccccc4)c3)c2)N=C1N (stereo unspecified) | 20.5 | > 10000 | 3.14 |
| CN1C(=O)C(c2ccccc2)(c2cccc(-c3ccc(C(C)(C)C)cc3)c2)N=C1N (stereo unspecified) | 34.2 | > 10000 | 3.1 |
| CN1C(=O)C(c2ccccc2)(c2cccc(Br)c2)N=C1N (stereo unspecified) | 33.1 | > 10000 | 2.04 |
| COc1cccc(OC)c1-c1cccc(C2(c3ccccc3)N=C(N)N(C)C2=O)c1 (stereo unspecified) | 82.1 | 720 | 2.02 |
| COc1ccc(-c2cccc(C3(c4ccccc4)N=C(N)N(C)C3=O)c2)c(OC)c1 (stereo unspecified) | 75.5 | 1570 | 2.46 |
